Results on 18 compounds are retold here after patent publication US20130190289A1, “COMPOUNDS AND METHODS FOR THE TREATMENT OR PREVENTION OF FLAVIVIRUS INFECTIONS” (priority 2010, published 2013).

The test system of data set [1] is HCV replicon (genotype 1b) in Huh7 cell line ET. Kind of data set: microbe, parasite or virus in culture. It is filed as cell-based, HCV genotype 1b. The note with it: Hepatitis C virus, Huh-7, read-out: HCV-Replicon-(Luci-ET) 1b_IC50. On the technique in general: A replicon is a self-replicating genome or part of one, used to study replication in cells.
Data set [2] is described as follows: [3H]Thymidine incorporation assay (cell toxicity). The following applies: human. On the technique in general: Incorporation of labelled thymidine or its analogues reports DNA synthesis.

Each structure is given as a SMILES string. A value given as a limit tells only on which side of the number the result lay.

In general, CC50 refers to the concentration at which the toxic effect on the cells reaches its halfway point. Low values mean harm at low concentration, high ones better tolerance by the cells. Consider `CC1CN(C(=O)CN(c2cc(C#CC(C)(C)C)sc2C(=O)O)C(=O)[C@H]2CC[C@H](C)CC2)CCO1` (stereo partly drawn) [Compound 26], for which the IC50 in data set [1] is below 0.1 µM. Besides, in data set [2], the CC50 at 72 h is 10 to 100 µM.
For `C[C@@H](C(=O)N1CC[C@H](O)C1)N(c1cc(C#CC(C)(C)C)sc1C(=O)O)C(=O)[C@H]1CC[C@H](C)CC1` [Compound 29, 5-(3,3-Dimethylbut-1-ynyl)-3-[[(1S)-2-[(3S)-3-hydroxypyrrolidin-1-yl]-1-methyl-2-oxo-ethyl]-(trans-4-methylcyclohexanecarbonyl)amino]thiophene-2-carboxylic acid], in data set [1], the IC50 was below 0.1 µM. This compound also displayed a CC50 at 72 h in data set [2] above 100 µM.
As for `C[C@@H](C(=O)NC1CCOC1)N(c1cc(C#CC(C)(C)C)sc1C(=O)O)C(=O)[C@H]1CC[C@H](C)CC1` (stereo partly drawn) [Compound 30, 5-(3,3-Dimethylbut-1-ynyl)-3-[(trans-4-methylcyclohexanecarbonyl)-[(1S)-1-methyl-2-oxo-2-(tetrahydrofuran-3-ylamino)ethyl]amino]thiophene-2-carboxylic acid], the IC50 in data set [1] is below 0.1 µM. Besides, in data set [2], the CC50 at 72 h was above 100 µM.
For `C[C@@H](C(=O)NC1CCC(O)CC1)N(c1cc(C#CC(C)(C)C)sc1C(=O)O)C(=O)[C@H]1CC[C@H](C)CC1` (stereo partly drawn) [Compound 31, 5-(3,3-Dimethylbut-1-ynyl)-3-[[(1S)-2-[(4-hydroxycyclohexyl)amino]-1-methyl-2-oxo-ethyl]-(trans-4-methylcyclohexanecarbonyl)amino]thiophene-2-carboxylic acid], in data set [1], the IC50 is below 0.1 µM. Also, the CC50 at 72 h in data set [2] was above 100 µM.
For the compound `C[C@@H](C(=O)N1CC[C@@H](O)C1)N(c1cc(C#CC(C)(C)C)sc1C(=O)O)C(=O)[C@H]1CC[C@H](C)CC1` [Compound 32, 5-(3,3-Dimethylbut-1-ynyl)-3-[[(1S)-2-[(3R)-3-hydroxypyrrolidin-1-yl]-1-methyl-2-oxo-ethyl]-(trans-4-methylcyclohexanecarbonyl)amino]thiophene-2-carboxylic acid], the IC50 in data set [1] is below 0.1 µM. The same compound yielded a CC50 at 72 h in data set [2] above 100 µM.
As to `CN(C)C(=O)[C@H](CO)N(c1cc(C#CC(C)(C)C)sc1C(=O)O)C(=O)[C@H]1CC[C@H](C)CC1` [Compound 34, 3-[[(1S)-2-(dimethylamino)-1-(hydroxymethyl)-2-oxo-ethyl]-(trans-4-methylcyclohexanecarbonyl)amino]-5-(3,3-dimethylbut-1-ynyl)thiophene-2-carboxylic acid], the IC50 in data set [1] is below 0.1 µM. In data set [2], this compound yielded a CC50 at 72 h above 100 µM.
On to `COC[C@@H](C(=O)N1CCCC1)N(C(=O)C1CCCCC1)c1cc(C#CC(C)(C)C)sc1C(=O)O` [Compound 36, 3-[Cyclohexanecarbonyl-[(1S)-1-(methoxymethyl)-2-oxo-2-pyrrolidin-1-yl-ethyl]amino]-5-(3,3-dimethylbut-1-ynyl)thiophene-2-carboxylic acid], for which the IC50 in data set [1] was in the range of 0.1 to 1 µM. Also, in data set [2], the CC50 at 72 h was above 100 µM.
Regarding `C[C@@H](C(=O)N(C)CCO)N(c1cc(C#CC(C)(C)C)sc1C(=O)O)C(=O)[C@H]1CC[C@H](C)CC1` [Compound 37, 5-(3,3-Dimethylbut-1-ynyl)-3-[[(1S)-2-[2-hydroxyethyl(methyl)amino]-1-methyl-2-oxo-ethyl]-(trans-4-methylcyclohexanecarbonyl)amino]thiophene-2-carboxylic acid], in data set [1], the IC50 is below 0.1 µM. In data set [2], this compound displayed a CC50 at 72 h above 100 µM.
`COCCN(C)C(=O)[C@H](C)N(c1cc(C#CC(C)(C)C)sc1C(=O)O)C(=O)[C@H]1CC[C@H](C)CC1` [Compound 38, 5-(3,3-Dimethylbut-1-ynyl)-3-[[(1S)-2-[2-methoxyethyl(methyl)amino]-1-methyl-2-oxo-ethyl]-(trans-4-methylcyclohexanecarbonyl)amino]thiophene-2-carboxylic acid]: in data set [1], the IC50 was below 0.1 µM. In data set [2], this compound displayed a CC50 at 72 h above 100 µM.
For `C[C@@H](C(=O)N1CC[C@H](CO)C1)N(c1cc(C#CC(C)(C)C)sc1C(=O)O)C(=O)[C@H]1CC[C@H](C)CC1` [Compound 39, 5-(3,3-Dimethylbut-1-ynyl)-3-[[(1S)-2-[(3S)-3-(hydroxymethyl)pyrrolidin-1-yl]-1-methyl-2-oxo-ethyl]-(trans-4-methylcyclohexanecarbonyl)amino]thiophene-2-carboxylic acid], in that order: below 0.1 µM and above 100 µM.
As for `COC1CCCN(C(=O)[C@H](C)N(c2cc(C#CC(C)(C)C)sc2C(=O)O)C(=O)[C@H]2CC[C@H](C)CC2)C1` (stereo partly drawn) [Compound 40, 5-(3,3-Dimethylbut-1-ynyl)-3-[[(1S)-2-(3-methoxy-1-piperidyl)-1-methyl-2-oxo-ethyl]-(trans-4-methylcyclohexanecarbonyl)amino]thiophene-2-carboxylic acid], the IC50 in data set [1] is below 0.1 µM. In data set [2], this compound came in with a CC50 at 72 h above 100 µM.
On to `CN(C(=O)CN(c1cc(C#CC(C)(C)C)sc1C(=O)O)C(=O)[C@H]1CC[C@H](C)CC1)C1CCOCC1` [Compound 43], for which the IC50 in data set [1] is below 0.1 µM. In addition, in data set [2], the CC50 at 72 h is above 100 µM.
For `COC1CCN(C(=O)CN(c2cc(C#CC(C)(C)C)sc2C(=O)O)C(=O)[C@H]2CC[C@H](C)CC2)CC1` [Compound 44], in data set [1], the IC50 is below 0.1 µM. For the same compound, the CC50 at 72 h in data set [2] is above 100 µM.
For `CC(C)(C)C#Cc1cc(N(CC(=O)N2CCCCC2)C(=O)[C@H]2CC[C@H](C)CC2)c(C(=O)O)s1` [Compound 46], in that order: below 0.1 µM and above 100 µM.
As to `CC1COCCN1C(=O)[C@H](C)N(c1cc(C#CC(C)(C)C)sc1C(=O)O)C(=O)[C@H]1CC[C@H](C)CC1` (stereo partly drawn) [Compound 47, 5-(3,3-dimethylbut-1-ynyl)-3-[(trans-4-methylcyclohexanecarbonyl)-[(1S)-1-methyl-2-(3-methylmorpholin-4-yl)-2-oxo-ethyl]amino]thiophene-2-carboxylic acid], in data set [1], the IC50 was below 0.1 µM. Besides, the CC50 at 72 h in data set [2] was above 100 µM.
For `C[C@@H]1CN(C(=O)[C@H](C)N(c2cc(C#CC(C)(C)C)sc2C(=O)O)C(=O)[C@H]2CC[C@H](C)CC2)C[C@H](C)O1` [Compound 48, 5-(3,3-Dimethylbut-1-ynyl)-3-[[(1S)-2-[(2R,6S)-2,6-dimethylmorpholin-4-yl]-1-methyl-2-oxo-ethyl]-(trans-4-methylcyclohexanecarbonyl)amino]thiophene-2-carboxylic acid], in data set [1], the IC50 was below 0.1 µM. Moreover, the CC50 at 72 h in data set [2] lay in the range of 10 to 100 µM.
Consider `CC1CN(C(=O)[C@H](C)N(c2cc(C#CC(C)(C)C)sc2C(=O)O)C(=O)[C@H]2CC[C@H](C)CC2)CCO1` (stereo partly drawn) [Compound 49, 5-(3,3-Dimethylbut-1-ynyl)-3-[(trans-4-methylcyclohexanecarbonyl)-[(1S)-1-methyl-2-(2-methylmorpholin-4-yl)-2-oxo-ethyl]amino]thiophene-2-carboxylic acid], for which the IC50 in data set [1] is below 0.1 µM. The same compound displayed a CC50 at 72 h in data set [2] above 100 µM.
For `C[C@@H](C(=O)N1CCOC(C)(C)C1)N(c1cc(C#CC(C)(C)C)sc1C(=O)O)C(=O)[C@H]1CC[C@H](C)CC1` [Compound 50, 5-(3,3-Dimethylbut-1-ynyl)-3-[[(1S)-2-(2,2-dimethylmorpholin-4-yl)-1-methyl-2-oxo-ethyl]-(trans-4-methylcyclohexanecarbonyl)amino]thiophene-2-carboxylic acid], the IC50 in data set [1] is below 0.1 µM. Also, in data set [2], the 50% cytotoxic concentration (CC50) at 72 h was above 100 µM.
